Several values for one entry are separate records, joined by “and”; a condition that tells them apart may be missing. Equal entries are not always repeated. Activity calls are given as the source filed them. How the calls were made is not given here.
target: Perilipin-5 (Homo sapiens) + 1-acylglycerol-3-phosphate O-acyltransferase ABHD5 (Homo sapiens) (UniProt Q00G26+Q8WTS1); test: ABHD5-PLIN5 interaction inhibitors, late-stage follow-up, cell lysate, luminescence, proteins expressed in HEK293T (AID 651759)
Sequence (Q00G26 whole entry, looked up): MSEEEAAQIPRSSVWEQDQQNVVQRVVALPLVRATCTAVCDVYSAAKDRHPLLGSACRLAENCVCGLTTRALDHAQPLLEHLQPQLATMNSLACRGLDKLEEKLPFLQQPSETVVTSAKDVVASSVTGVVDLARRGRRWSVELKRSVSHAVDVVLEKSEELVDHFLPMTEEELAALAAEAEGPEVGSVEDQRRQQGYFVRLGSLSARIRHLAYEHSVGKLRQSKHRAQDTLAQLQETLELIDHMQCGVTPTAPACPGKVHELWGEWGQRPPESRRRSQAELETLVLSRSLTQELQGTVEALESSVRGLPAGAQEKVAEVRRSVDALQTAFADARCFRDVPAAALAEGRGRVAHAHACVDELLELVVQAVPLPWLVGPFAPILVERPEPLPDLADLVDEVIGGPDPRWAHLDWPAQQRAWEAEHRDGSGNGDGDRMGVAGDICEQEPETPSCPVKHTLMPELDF
Sequence (Q8WTS1 whole entry, looked up): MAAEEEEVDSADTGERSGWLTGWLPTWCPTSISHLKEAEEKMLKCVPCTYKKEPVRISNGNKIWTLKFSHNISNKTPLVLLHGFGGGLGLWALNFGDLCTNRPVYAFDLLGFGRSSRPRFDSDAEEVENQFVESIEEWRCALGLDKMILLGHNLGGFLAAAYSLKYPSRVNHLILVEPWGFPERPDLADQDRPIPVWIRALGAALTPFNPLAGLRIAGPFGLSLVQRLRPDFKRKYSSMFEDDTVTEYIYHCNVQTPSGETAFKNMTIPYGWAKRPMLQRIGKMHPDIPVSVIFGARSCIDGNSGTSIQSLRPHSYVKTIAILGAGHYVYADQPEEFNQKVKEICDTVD

| IC50 | Structure (SMILES) |
| --- | --- |
| inactive | COc1ccc(NC(=S)N(CCCN2CCCC2)Cc2cccn2Cc2ccc(Cl)cc2)cc1Cl |
| 2.25 µM | CCOC(=O)c1c(NC(C)=O)sc2c1CCC(C=O)=C2Sc1ccccc1 |
| 1 µM | CC(C)c1ccc(N2C=Nc3ccc(C(C)C)cc3C2)cc1 |
| > 39.8 µM (inactive) | COc1cc(C)c2sc3ccccc3c(=O)c2c1NCCN(C)C |
| 7.06 µM | Cc1cc(C)c(NC(=O)CN2CCN3CCCC3C2)c(C)c1 (stereo unspecified) |
| inactive | CC(=O)Nc1ccc(S(=O)(=O)N2c3ccc(F)cc3CCC2C)cc1 (stereo unspecified) |
| 4.75 µM | CC(=O)Cc1cc(O)c2ccccc2c1OC(=O)c1ccc(Br)cc1 |
| 3.89 µM | Cc1cc(C)c2nc(NNC(=O)c3ccc(S(=O)(=O)N4CCCC(C)C4)cc3)sc2c1 (stereo unspecified) |
| 2.85 µM | CCN(CC)CCN(CC(=O)Nc1c(C)cc(C)cc1C)C(=O)c1ccccc1 |
| 4.5 µM | CCOC(=O)c1c(NC(=O)/C=C/C(=O)O)sc(C)c1-c1ccc(C(C)(C)C)cc1 |
| 1.44 µM | Cc1ccc2nc3cc([N+](=O)[O-])cc([N+](=O)[O-])c3cc2c1 |
| > 39.8 µM (inactive) | CN1CCC(=C2c3ccccc3CC(=O)c3sccc32)CC1 |
| 1.32 µM | CCN(CC)CCOc1ccc(/C(=C(/Cl)c2ccccc2)c2ccccc2)cc1 |
| 6.19 µM | O=C(/C(=C/O)N=Nc1ccc(Cl)cc1)c1ccncc1 |
| 3.12 µM | CCCCNC(=O)Nc1ccc2c(c1)N(C)C(=O)c1ccccc1S2 |
| > 39.8 µM (inactive) | CC(=O)Oc1ccc(C23c4ccccc4C2(OC(C)=O)c2cc(OC(C)=O)ccc23)cc1 (stereo unspecified) |
| 9 µM | CC1CCN(S(=O)(=O)c2ccc(NC(=O)Cc3cccs3)cc2)CC1 |
| > 39.8 µM (inactive) | CN(C)CCN(Cc1ccco1)c1ccccn1 |
| 4.25 µM | CC1=CC(C)(C)Nc2ccc(OC(=O)C(C)N3C(=O)c4ccccc4C3=O)cc21 (stereo unspecified) |
| 1.33 µM | O=c1[nH]c(C2CCN(S(=O)(=O)c3ccc(S(=O)(=O)NC4CC4)cc3)CC2)nc2c1nnn2Cc1ccc(F)cc1 |
| 2.25 µM | Cc1nc2c(o1)CCc1ccccc1C2N1CCN(C)CC1 (stereo unspecified) |
| 8.86 µM | CC1Sc2ccc(S(=O)(=O)N3CCC(C(=O)NCc4ccc(Cl)cc4)CC3)cc2NC1=O (stereo unspecified) |
| inactive | FC(F)(F)c1cccc(NC(=S)N(CCCN2CCCC2)Cc2cccn2Cc2ccc(Cl)cc2)c1 |

| IC50 | Structure (SMILES) |
| --- | --- |
| 2.97 µM and 5.73 µM | Cc1ccc2c(CC(=O)N3CCN(S(=O)(=O)c4ccc5c(c4)OCCO5)CC3)coc2c1 |
| > 39.8 µM (inactive) | COCCN(CCOC)c1nc(N)c2c(N)nc3c(c2c1C#N)CC(=O)N3Cc1ccc(Cl)cc1 |
| 1.29 µM | CCOc1cc(N)c(Cl)cc1C(=O)NCC1CN(Cc2ccc(F)cc2)CCO1 (stereo unspecified) |
| > 13.3 µM (inactive) | COc1ccccc1-c1cc(C(=O)NC2CCN(C)CC2)c2ccc(Cl)c(C)c2n1 |
| > 39.8 µM (inactive) | O=C(C[n+]1cccc(CNC(=O)c2ccc(OC(F)F)cc2)c1)Nc1cccc(C(F)(F)F)c1 |
| 2.15 µM | COc1cc(OC)cc(C(=O)NC(=S)N(Cc2ccccc2)C(C)C)c1 |
| 5.58 µM | CCCNC(=O)Nc1ccc2c(c1)N(C)C(=O)c1ccccc1S2 |
| 6.22 µM and 6.86 µM | NC(=NCCCCCCN=C(N)/N=C(\N)Nc1ccc(Cl)cc1)/N=C(\N)Nc1ccc(Cl)cc1 |
| 3.7 µM | CCCCOC(=O)Nc1cc(C(=O)OC)ccc1C(=O)OC |
| 9.34 µM | COc1cc2c(cc1OC)C(C)N(CCc1ccc(Cl)cc1)CC2 (stereo unspecified) |
| 9.14 µM | Cc1cc(C)c(NC(=O)C[N+](C)(C)CC(O)COc2cccc3ccccc23)c(C)c1 (stereo unspecified) |
| 3.56 µM | CC(=O)Cc1cc(O)c2ccccc2c1OC(=O)c1ccccc1 |
| inactive | O=c1[nH]c(C2CCN(S(=O)(=O)c3ccc(F)cc3)CC2)nc2c1nnn2Cc1ccc2c(c1)OCCO2 |
| 4.45 µM | C=C[C@]1(C)C[C@@H](OC(=O)CSCCN(CC)CC)[C@]2(C)C(C)CC[C@]3(CCC(=O)[C@H]32)[C@@H](C)[C@@H]1O (stereo partly specified) |
| inactive | CN(C)CCCN(C(=O)CCc1ccccc1)c1nc2ccc(Cl)cc2s1 |
| 2.89 µM | CC(CCc1ccco1)NC(=O)CCc1nnc2ccc(NCc3ccccc3Cl)nn12 (stereo unspecified) |
| inactive | CCN(CC)CCNC(=O)c1ccc(NC(=O)c2cn(-c3ccccc3)nc2-c2cccs2)cc1 |
| 1.26 µM | CCN(CC)CCOCCOC(=O)C1(c2ccccc2)CCCC1 |
| > 39.8 µM (inactive) | CN(C)CCOC1(Cc2ccc(F)cc2)CCC(C(C)(C)C)CC1 (stereo unspecified) |
| 7.89 µM | CC1CCN(S(=O)(=O)c2ccc(NC(=O)Cc3ccccc3)cc2)CC1 |
| inactive | CN(C)CCCN(C(=O)CCc1ccccc1)c1nc2ccc(Br)cc2s1 |
| 1.38 µM | CCN(CC)CCC(C)OC(c1ccccc1)c1ccccc1 (stereo unspecified) |
| inactive | COc1ccc(C)c2sc(N(CCN(C)C)C(=O)/C=C/c3cccs3)nc12 |

Reference: PubChem BioAssay AID651759 (The Scripps Research Institute Molecular Screening Center, 2012)
